Reference: patent US7138361B2, “Herbicidal heterocycles” (E. I. du Pont de Nemours and Company, priority 2000, dated 2006)

Experiments:
Type in all cases: in vivo
Sunflower [1] = test: Test C preemergence; details: Rate 250 g/ha, visual evaluation after 12 to 14 days
[2] = system: cocklebur (Xanthium strumarium); test: Test B preemergence; details: scale 0 to 100, 0 no effect, 100 complete control
Summary of the method: (§1)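 Preemergence: seeds planted and treated with test chemicals in non-phytotoxic solvent with surfactant; postemergence on plants 2–18 cm (1- to 4-leaf stage). Kept in greenhouse 13–15 days, then visually rated against controls on a 0 (no effect) to 100 (complete control) scale.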

[3] = system: lambsquarters (Chenopodium album); test: Test B preemergence; details: scale 0 to 100, 0 no effect, 100 complete control
Summary of the method: as §1

[4] = system: Surinam grass (Brachiaria decumbens); test: Test B preemergence; details: scale 0 to 100, 0 no effect, 100 complete control
Summary of the method: as §1

rice (Oryza saliva) = test: Test B preemergence; details: Preemergence, Rate 500 g/ha; scale 0 to 100, 0 no effect, 100 complete control
Summary of the method: as §1

[5] = system: giant foxtail (Setaria faberii); test: Test B preemergence; details: scale 0 to 100, 0 no effect, 100 complete control
Summary of the method: as §1

[6] = system: barnyardgrass (Echinochloa crus-galli); test: Test B preemergence; details: scale 0 to 100, 0 no effect, 100 complete control
Summary of the method: as §1

[7] = system: crabgrass (Digitaria sanguinalis); test: Test B preemergence; details: scale 0 to 100, 0 no effect, 100 complete control
Summary of the method: as §1

corn (Zea mays) [8] = test: Test B preemergence; details: scale 0 to 100, 0 no effect, 100 complete control
Summary of the method: as §1

[9] = system: pigweed (Amaranthus retroflexus); test: Test B preemergence; details: Preemergence, Rate 500 g/ha; scale 0 to 100, 0 no effect, 100 complete control
Summary of the method: as §1

[10] = system: morning glory (Ipomoea hederacea); test: Test B preemergence; details: Preemergence, Rate 500 g/ha; scale 0 to 100, 0 no effect, 100 complete control
Summary of the method: as §1

[11] = system: velvetleaf (Abutilon theophrasti); test: Test B preemergence; details: Preemergence, Rate 500 g/ha; scale 0 to 100, 0 no effect, 100 complete control
Summary of the method: as §1

Sunflower [12] = test: Test C preemergence; details: Rate 125 g/ha, scale 0 to 100, 0 no effect, 100 complete control
[13] = system: smallflower flatsedge (Cyperus difformis); test: Test C flooded paddy test; details: for Flatsedge plant response rating: Flooded Paddy, scale 0 to 100, 0 no effect, 100 complete control; for Plant response rating, Flatsedge: flooded paddy test, scale 0 to 100 (0 no effect, 100 complete control)
Summary of the method: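 Response on a 0-to-100 scale (no effect to complete control) was assessed by eye versus controls. Plants had reached 2 leaves when treated in flooded paddy conditions. The assessment took place after 12–14 days of greenhouse growth.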

[14] = system: cocklebur (Xanthium strumarium); test: Test B postemergence; details: 13 to 15 days
Summary of the method: as §1

[15] = system: lambsquarters (Chenopodium album); test: Test B postemergence; details: 13 to 15 days
Summary of the method: as §1

[16] = system: Surinam grass (Brachiaria decumbens); test: Test B postemergence; details: 13 to 15 days
Summary of the method: as §1

wild oat (Avena fatua) = test: Test B postemergence; details: 13 to 15 days
Summary of the method: as §1

[17] = system: giant foxtail (Setaria faberii); test: Test B postemergence; details: 13 to 15 days
Summary of the method: as §1

[18] = system: barnyardgrass (Echinochloa crus-galli); test: Test B postemergence; details: 13 to 15 days
Summary of the method: as §1

[19] = system: blackgrass (Alopecurus myosuroides); test: Test B postemergence; details: 13 to 15 days
Summary of the method: as §1

[20] = system: crabgrass (Digitaria sanguinalis); test: Test B postemergence; details: 13 to 15 days
Summary of the method: as §1

corn (Zea mays) [21] = test: Test B postemergence; details: 13 to 15 days
Summary of the method: as §1

[22] = system: wheat (Triticum aestivum); test: Test B postemergence; details: 13 to 15 days
Summary of the method: as §1

[23] = system: pigweed (Amaranthus retroflexus); test: Test B postemergence; details: 13 to 15 days
Summary of the method: as §1

[24] = system: morning glory (Ipomoea hederacea); test: Test B postemergence; details: 13 to 15 days
Summary of the method: as §1

[25] = system: velvetleaf (Abutilon theophrasti); test: Test B postemergence; details: 13 to 15 days
Summary of the method: as §1

[26] = Rate 125 g/ha, scale 0 (no effect) to 100 (complete control)
[27] = Rate 500 g/ha, scale 0 to 100, 0 is no effect, 100 is complete control

O=C1C(n2ccc(C3CCC3)n2)OCN1c1cccc(C(F)(F)F)c1 (centres unmarked) [Compound 39]
60: Plant response rating, Pigweed [23, 26]
50: Plant response rating, Barnyardgrass ([6]; preemergence, Rate 125 g/ha)
10: Plant response rating, Corn (corn (Zea mays) [21]; [27])
20: Plant response rating, Surinam grass ([4]; Preemergence, Rate 500 g/ha) | Plant response rating, Surinam grass ([4]; preemergence, Rate 125 g/ha)
70: Plant response rating, Lambsquarters [15, 26] | Plant response rating, Crabgrass [20, 27]
100: Plant response rating, Lambsquarters ([3]; Preemergence, Rate 500 g/ha) | Plant response rating, Lambsquarters ([3]; preemergence, Rate 125 g/ha) | Plant response rating, Foxtail, Giant ([5]; Preemergence, Rate 500 g/ha) | Plant response rating, Barnyardgrass ([6]; Preemergence, Rate 500 g/ha) | Plant response rating, Crabgrass ([7]; Preemergence, Rate 500 g/ha) | Plant response rating, Pigweed [9] | Flatsedge plant response rating ([13]; Rate 250 g/ha) | Flatsedge plant response rating ([13]; Rate 500 g/ha) | Plant response rating, Flatsedge ([13]; Rate 125 g/ha) | Plant response rating, Barnyardgrass [18, 27]
0: Plant response rating (0 to 100), Sunflower (Sunflower [1]) | Plant response rating, Cocklebur ([2]; Preemergence, Rate 500 g/ha) | Plant response rating, Cocklebur ([2]; preemergence, Rate 125 g/ha) | Plant response rating, Rice (rice (Oryza saliva)) | Plant response rating, Crabgrass ([7]; preemergence, Rate 125 g/ha) | Plant response rating, Corn (corn (Zea mays) [8]; Preemergence, Rate 500 g/ha) | Plant response rating, Corn (corn (Zea mays) [8]; preemergence, Rate 125 g/ha) | Plant response rating, Morningglory [10] | Plant response rating, Velvetleaf [11] | Plant response rating, Sunflower (Sunflower [12]) | Plant response rating, Cocklebur [14, 26] | Plant response rating, Cocklebur [14, 27] | Plant response rating, Surinam grass [16, 26] | Plant response rating, Surinam grass [16, 27] | Plant response rating, Wild Oat (wild oat (Avena fatua); [26]) | Plant response rating, Wild Oat (wild oat (Avena fatua); [27]) | Plant response rating, Foxtail, Giant [17, 26] | Plant response rating, Foxtail, Giant [17, 27] | Plant response rating, Barnyardgrass [18, 26] | Plant response rating, Blackgrass [19, 26] | Plant response rating, Blackgrass [19, 27] | Plant response rating, Crabgrass [20, 26] | Plant response rating, Corn (corn (Zea mays) [21]; [26]) | Plant response rating, Wheat [22, 26] | Plant response rating, Wheat [22, 27] | Plant response rating, Morningglory [24, 26] | Plant response rating, Morningglory [24, 27] | Plant response rating, Velvetleaf [25, 26] | Plant response rating, Velvetleaf [25, 27]
30: Plant response rating, Foxtail, Giant ([5]; preemergence, Rate 125 g/ha)
90: Plant response rating, Flatsedge ([13]; Rate 62 g/ha) | Plant response rating, Lambsquarters [15, 27] | Plant response rating, Pigweed [23, 27]

CCC(C)c1ccn(C2SCN(c3cccc(OC(F)(F)F)c3)C2=O)n1 (centres unmarked) [Compound 40]
90: Plant response rating, Surinam grass ([4]; Preemergence, Rate 500 g/ha) | Plant response rating, Lambsquarters [15, 27] | Plant response rating, Foxtail, Giant [17, 27] | Plant response rating, Barnyardgrass [18, 26] | Plant response rating, Crabgrass [20, 27]
70: Plant response rating, Foxtail, Giant ([5]; preemergence, Rate 125 g/ha) | Plant response rating, Lambsquarters [15, 26] | Plant response rating, Foxtail, Giant [17, 26]
60: Plant response rating, Surinam grass ([4]; preemergence, Rate 125 g/ha) | Plant response rating, Corn (corn (Zea mays) [8]; Preemergence, Rate 500 g/ha) | Plant response rating, Morningglory [10] | Plant response rating, Crabgrass [20, 26]
30: Plant response rating (0 to 100), Sunflower (Sunflower [1]) | Plant response rating, Cocklebur [14, 26]
50: Plant response rating, Cocklebur [14, 27] | Plant response rating, Corn (corn (Zea mays) [21]; [27])
80: Plant response rating, Pigweed [23, 27]
100: Plant response rating, Lambsquarters ([3]; Preemergence, Rate 500 g/ha) | Plant response rating, Lambsquarters ([3]; preemergence, Rate 125 g/ha) | Plant response rating, Rice (rice (Oryza saliva)) | Plant response rating, Foxtail, Giant ([5]; Preemergence, Rate 500 g/ha) | Plant response rating, Barnyardgrass ([6]; Preemergence, Rate 500 g/ha) | Plant response rating, Barnyardgrass ([6]; preemergence, Rate 125 g/ha) | Plant response rating, Crabgrass ([7]; Preemergence, Rate 500 g/ha) | Plant response rating, Crabgrass ([7]; preemergence, Rate 125 g/ha) | Plant response rating, Pigweed [9] | Flatsedge plant response rating ([13]; Rate 250 g/ha) | Flatsedge plant response rating ([13]; Rate 500 g/ha) | Plant response rating, Flatsedge ([13]; Rate 62 g/ha) | Plant response rating, Flatsedge ([13]; Rate 125 g/ha) | Plant response rating, Barnyardgrass [18, 27]
20: Plant response rating, Morningglory [24, 27]
10: Plant response rating, Morningglory [24, 26]
0: Plant response rating, Cocklebur ([2]; Preemergence, Rate 500 g/ha) | Plant response rating, Cocklebur ([2]; preemergence, Rate 125 g/ha) | Plant response rating, Corn (corn (Zea mays) [8]; preemergence, Rate 125 g/ha) | Plant response rating, Velvetleaf [11] | Plant response rating, Sunflower (Sunflower [12]) | Plant response rating, Surinam grass [16, 26] | Plant response rating, Surinam grass [16, 27] | Plant response rating, Wild Oat (wild oat (Avena fatua); [26]) | Plant response rating, Wild Oat (wild oat (Avena fatua); [27]) | Plant response rating, Blackgrass [19, 26] | Plant response rating, Blackgrass [19, 27] | Plant response rating, Corn (corn (Zea mays) [21]; [26]) | Plant response rating, Wheat [22, 26] | Plant response rating, Wheat [22, 27] | Plant response rating, Velvetleaf [25, 26] | Plant response rating, Velvetleaf [25, 27]
40: Plant response rating, Pigweed [23, 26]

CC(C)c1ccn(C2SCN(c3cccc(OC(F)F)c3)C2=O)n1 (centres unmarked) [Compound 44]
10: Plant response rating, Foxtail, Giant ([5]; preemergence, Rate 125 g/ha)
90: Plant response rating, Flatsedge ([13]; Rate 62 g/ha)
40: Plant response rating, Barnyardgrass [18, 26] | Plant response rating, Crabgrass [20, 27]
0: Plant response rating, Cocklebur ([2]; preemergence, Rate 125 g/ha) | Plant response rating, Surinam grass ([4]; preemergence, Rate 125 g/ha) | Plant response rating, Crabgrass ([7]; preemergence, Rate 125 g/ha) | Plant response rating, Corn (corn (Zea mays) [8]; preemergence, Rate 125 g/ha) | Plant response rating, Morningglory [10] | Plant response rating, Velvetleaf [11] | Plant response rating, Sunflower (Sunflower [12]) | Plant response rating, Surinam grass [16, 26] | Plant response rating, Surinam grass [16, 27] | Plant response rating, Wild Oat (wild oat (Avena fatua); [26]) | Plant response rating, Wild Oat (wild oat (Avena fatua); [27]) | Plant response rating, Foxtail, Giant [17, 26] | Plant response rating, Blackgrass [19, 26] | Plant response rating, Blackgrass [19, 27] | Plant response rating, Crabgrass [20, 26] | Plant response rating, Corn (corn (Zea mays) [21]; [26]) | Plant response rating, Wheat [22, 26] | Plant response rating, Wheat [22, 27] | Plant response rating, Pigweed [23, 26] | Plant response rating, Pigweed [23, 27] | Plant response rating, Morningglory [24, 26] | Plant response rating, Morningglory [24, 27] | Plant response rating, Velvetleaf [25, 26] | Plant response rating, Velvetleaf [25, 27]
60: Plant response rating, Lambsquarters [15, 27] | Plant response rating, Foxtail, Giant [17, 27]
20: Plant response rating (0 to 100), Sunflower (Sunflower [1]) | Plant response rating, Corn (corn (Zea mays) [8]; Preemergence, Rate 500 g/ha) | Plant response rating, Cocklebur [14, 26] | Plant response rating, Lambsquarters [15, 26] | Plant response rating, Corn (corn (Zea mays) [21]; [27])
70: Plant response rating, Cocklebur [14, 27]
80: Plant response rating, Barnyardgrass ([6]; preemergence, Rate 125 g/ha)
100: Plant response rating, Lambsquarters ([3]; Preemergence, Rate 500 g/ha) | Plant response rating, Lambsquarters ([3]; preemergence, Rate 125 g/ha) | Plant response rating, Surinam grass ([4]; Preemergence, Rate 500 g/ha) | Plant response rating, Rice (rice (Oryza saliva)) | Plant response rating, Foxtail, Giant ([5]; Preemergence, Rate 500 g/ha) | Plant response rating, Barnyardgrass ([6]; Preemergence, Rate 500 g/ha) | Plant response rating, Crabgrass ([7]; Preemergence, Rate 500 g/ha) | Plant response rating, Pigweed [9] | Flatsedge plant response rating ([13]; Rate 250 g/ha) | Flatsedge plant response rating ([13]; Rate 500 g/ha) | Plant response rating, Flatsedge ([13]; Rate 125 g/ha) | Plant response rating, Barnyardgrass [18, 27]
